This note sets out measurements from ChEMBL document CHEMBL4808184, “Discovery and Optimization of DNA Gyrase and Topoisomerase IV Inhibitors with Potent Activity against Fluoroquinolone-Resistant Gram-Positive Bacteria” (J Med Chem, 2021).

Converted amounts (≈) assume the structure as drawn.

In one data set the test system is K562. Nature of the data set: cells. The following applies: Homo sapiens, K562, 72 h.
Data set [1] is described as follows: physchem. The following applies: octanol/water, pH 7.4.
In data set [2] the test system is Staphylococcus aureus. Nature of the data set: microbe, parasite or virus in culture. The following applies: ATCC 49951.
Data set [3] can be described thus: physchem.
A further data set concerns HepG2. Nature of the data set: cells. The following applies: Homo sapiens, HepG2, 72 h.
The test system of the next data set is Streptococcus pneumoniae. Nature of the data set: microbe, parasite or virus in culture. The following applies: ATCC 49619.
In data set [4] the test system is Staphylococcus aureus. In words: microbe, parasite or virus in culture. The following applies: ATCC 49951. This is another data set of the same source.
In a further data set the test system is Enterococcus faecalis. In words: microbe, parasite or virus in culture. The following applies: ATCC 29212.
The subject of data set [5] is Staphylococcus aureus. In words: microbe, parasite or virus in culture. The following applies: ATCC 49951. The source holds these as a separate data set.
Data set [6] can be described thus: in vitro. The following applies: human, plasma.
A short description of data set [7]: in vitro. The following applies: CD1, mouse, plasma.
Data set [8] in a line: in vitro. The following applies: Sprague-Dawley, rat, plasma.
The nature of data set [9]: in vivo. The following applies: rat, po, 5 mg/kg.
Data set [10] is described as follows: in vivo. The following applies: rat, 5 mg/kg.
A short description of data set [11]: in vivo. The following applies: rat, iv.
Data set [12] is described as follows: in vivo. The following applies: rat, po, 5 mg/kg. This is another data set of the same source.
The nature of data set [13]: in vivo. The following applies: rat, po, 5 mg/kg. The source holds these as a separate data set.
The nature of data set [14]: physchem. The following applies: buffer, pH 7.
Data set [15] can be described thus: in vitro. The following applies: human, Caco-2.
For a further data set, the target named is hERG (KCNH2) (Homo sapiens, UniProt Q12809). In words: in vitro. The following applies: CHO-K1 cells expressing human ERG.
Data set [16] in a line: in vivo. The following applies: rat, po, 5 mg/kg. The source holds these as a separate data set.
Data set [17] is described as follows: in vivo. The following applies: rat, 5 mg/kg. The source holds these as a separate data set.
Data set [18] in a line: in vitro. The following applies: human, Caco-2. This is another data set of the same source.
Data set [19] is described as follows: in vivo. The following applies: dog, po, 1 mg/kg.
A short description of data set [20]: in vivo. The following applies: mouse, po, 5 mg/kg.
Data set [21] can be described thus: in vivo. The following applies: dog, po, 1 mg/kg. The source holds these as a separate data set.
A short description of data set [22]: in vivo. The following applies: dog, 1 mg/kg.
Data set [23] can be described thus: in vivo. The following applies: mouse, po, 5 mg/kg. The source holds these as a separate data set.
Data set [24] can be described thus: in vivo. The following applies: dog, iv, 0.125 mg/kg.
Data set [25] is described as follows: in vivo. The following applies: dog, po, 1 mg/kg. The source holds these as a separate data set.
Data set [26] can be described thus: in vivo. The following applies: mouse, iv.
Data set [27] in a line: in vivo. The following applies: mouse, po, 5 mg/kg. This is another data set of the same source.
Data set [28] is described as follows: in vivo. The following applies: mouse, 5 mg/kg.
The nature of data set [29]: in vivo. The following applies: mouse, po, 5 mg/kg. The source holds these as a separate data set.

Chain of hERG (KCNH2) (Q12809 whole entry): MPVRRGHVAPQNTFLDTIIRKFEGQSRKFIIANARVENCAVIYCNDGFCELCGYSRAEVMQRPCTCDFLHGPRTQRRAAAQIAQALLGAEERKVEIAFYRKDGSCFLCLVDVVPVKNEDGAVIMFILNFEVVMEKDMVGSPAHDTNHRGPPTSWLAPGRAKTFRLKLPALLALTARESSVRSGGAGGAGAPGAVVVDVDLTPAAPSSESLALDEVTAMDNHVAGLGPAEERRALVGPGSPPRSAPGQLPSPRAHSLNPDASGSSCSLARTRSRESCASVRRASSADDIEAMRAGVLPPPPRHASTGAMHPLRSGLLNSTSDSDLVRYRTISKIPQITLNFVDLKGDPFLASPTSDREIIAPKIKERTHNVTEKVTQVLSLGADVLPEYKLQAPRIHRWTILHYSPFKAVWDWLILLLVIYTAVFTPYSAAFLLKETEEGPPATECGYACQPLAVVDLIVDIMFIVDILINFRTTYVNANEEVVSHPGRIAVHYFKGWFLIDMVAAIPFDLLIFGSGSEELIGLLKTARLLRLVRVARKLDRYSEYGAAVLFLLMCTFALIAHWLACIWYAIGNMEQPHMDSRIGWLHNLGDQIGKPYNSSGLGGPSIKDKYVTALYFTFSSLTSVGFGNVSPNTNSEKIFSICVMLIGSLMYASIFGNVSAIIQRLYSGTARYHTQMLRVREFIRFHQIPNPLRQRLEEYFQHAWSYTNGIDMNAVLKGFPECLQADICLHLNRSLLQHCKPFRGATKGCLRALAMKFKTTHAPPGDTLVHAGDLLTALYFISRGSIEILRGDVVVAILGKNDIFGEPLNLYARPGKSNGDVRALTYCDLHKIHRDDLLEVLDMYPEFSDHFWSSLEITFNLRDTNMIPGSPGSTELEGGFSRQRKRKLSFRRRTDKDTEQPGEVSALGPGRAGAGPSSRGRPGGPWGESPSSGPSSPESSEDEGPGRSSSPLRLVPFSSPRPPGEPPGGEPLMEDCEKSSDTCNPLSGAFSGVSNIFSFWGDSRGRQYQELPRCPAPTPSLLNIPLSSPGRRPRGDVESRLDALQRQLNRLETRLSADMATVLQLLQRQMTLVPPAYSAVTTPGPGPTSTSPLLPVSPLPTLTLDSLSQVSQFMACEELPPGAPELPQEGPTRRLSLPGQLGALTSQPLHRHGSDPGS

What is called EC50 is the concentration needed to bring the measured effect to its halfway point. Read a low EC50 as a more potent agent. By logD is commonly meant the decadic logarithm of the distribution of all forms, ionised or not, between an organic phase and buffer at a given pH. Read a high logD as higher lipophilicity. The term pKa denotes the pH at which an ionisable group is half protonated. For the compound `Cc1c(N2CC3CC3(N)C2)c(F)cc2c(CN)cc(=O)n(C3CC3)c12` (centres undefined), the values for the EC50 in the data set on K562 and in the data set on HepG2 were 40 µM and 82 µM, respectively. The compound further registered a logD in “physchem [1]” of 1.1. Moreover, in the data set on Staphylococcus aureus [2], the MIC came out at 0.125 µg/mL (≈ 0.365 µM). Moreover, in “physchem [3]”, the pKa is 7.6.

For the compound `Cc1c(N2CC[C@@H]([C@H](C)N)C2)c(F)cc2ccc(=O)n(C3CC3)c12`, the MIC in the data set on Streptococcus pneumoniae was ≤ 0.03 µg/mL; with Staphylococcus aureus [4], ≤ 0.03 µg/mL; against Enterococcus faecalis, 0.125 µg/mL (≈ 0.379 µM); in the data set with Staphylococcus aureus [2], 0.06 µg/mL (≈ 0.182 µM); with Staphylococcus aureus [5], ≤ 0.06 µg/mL. In “physchem [3]”, this compound gave a pKa of 9.6. Moreover, in the data set on HepG2, the EC50 turned out to be 93 µM.

The term fraction unbound denotes free concentration divided by total concentration. The low end stands for extensive binding, the high end for weak binding. `Cc1c(N2CC[C@@H]([C@H](C)N)C2)c(F)cc2cc(C(=O)O)c(=O)n(C3CC3)c12`: the MIC in the data set on Streptococcus pneumoniae was 0.015 µg/mL (≈ 0.0402 µM); with Staphylococcus aureus [4], 2 µg/mL (≈ 5.36 µM); in the data set with Enterococcus faecalis, 0.25 µg/mL (≈ 0.669 µM); against Staphylococcus aureus [2], 2 µg/mL (≈ 5.36 µM); against Staphylococcus aureus [5], 0.125 µg/mL (≈ 0.335 µM). Further, the EC50 with K562 and with HepG2 was > 100 µM each time. For the same compound, the fraction unbound at 4 h, 10 µM was 0.54 in “in vitro [6]”, 0.66 in the data set “in vitro [7]” and 0.54 in “in vitro [8]”. The pKa in “physchem [3]” was 5.2.

For orientation: Tmax means the time from dosing to the highest level. For orientation: Vd means a proportionality between amount in the body and measured concentration, not a real space. Lower therefore signals little distribution into tissue. Broadly, the half-life is the time in which the quantity being followed falls by half. In general, Cmax refers to the maximum level reached in the sampled fluid or tissue. The AUC(0-inf) is the area under the concentration-time curve extrapolated to infinity. Higher therefore signals high exposure. Take `Cc1c(N2CCC(C3(N)CC3)C2)c(F)cc2cc(C(=O)O)c(=O)n(C3CC3)c12` (centres undefined): the EC50 in the data set with K562 and in the data set with HepG2 was > 100 µM each time. Besides, the Tmax at 24 h in the data set “in vivo [9]” amounted to 1 h. In addition, the logD in “physchem [1]” is -0.97. The same compound had a Vd at 24 h in the data set “in vivo [10]” of 0.69 L/kg. In addition, in the data set “in vivo [11]”, the half-life at 24 h was 79.2 min. Besides, the results for the fraction unbound at 4 h, 10 µM in “in vitro [6]”, in “in vitro [7]” and in the data set “in vitro [8]” were 0.22, 0.48 and 0.25, respectively. This compound showed a peak concentration (Cmax) at 24 h in “in vivo [12]” of 2000 nM. Besides, the MIC against Staphylococcus aureus [2] is 1 µg/mL (≈ 2.59 µM); against Staphylococcus aureus [5], 0.06 µg/mL (≈ 0.156 µM). In addition, in “in vivo [13]”, the AUC(0-inf) at 24 h came out at 7.62 µM·h. Also, the pKa in “physchem [3]” stood at 5.2.

In general, solubility refers to the concentration that dissolves in the medium under given conditions. Lower therefore signals little dissolved substance. Broadly, the Papp A→B is how fast a substance crosses the layer from the apical side. Read a high Papp A→B as ready permeation. As a reminder, the inhibition is the share of the control response that was lost under treatment. A low value points to a response near the control. By bioavailability is commonly meant the share of a dose that reaches the circulation, judged against a reference dose that is usually intravenous. Read a low bioavailability as little systemic uptake. For orientation: clearance means a measure of how efficiently the substance is removed, as volume per time. A lower clearance goes with inefficient removal. By efflux ratio is commonly meant a quotient of directional permeabilities that is used to spot active efflux. For the compound `C[C@H](N)[C@@H]1CCN(c2c(F)cc3cc(C(=O)O)c(=O)n4c3c2OC[C@@H]4C)C1`, the MIC in the data set with Streptococcus pneumoniae is ≤ 0.03 µg/mL; against Staphylococcus aureus [4] it was 1 µg/mL (≈ 2.66 µM); with Enterococcus faecalis, 0.25 µg/mL (≈ 0.666 µM); in the data set with Staphylococcus aureus [2], 2 µg/mL (≈ 5.33 µM); against Staphylococcus aureus [5] it was 0.125 µg/mL (≈ 0.333 µM). The compound further yielded a solubility at 24 h in the data set “physchem [14]” of 675 µg/mL (≈ 1800 µM). The EC50 in the data set on K562 and with HepG2 was > 100 µM throughout. Further, the time to peak (Tmax) at 24 h in the data set “in vivo [9]” was 0.83 h. The logD in “physchem [1]” was -1.1. In “in vivo [10]”, this compound yielded a Vd at 24 h of 1.75 L/kg. For the same compound, the half-life at 24 h in the data set “in vivo [11]” is 181 min. The same compound displayed a Papp A→B at 2 h, 10 µM in the data set “in vitro [15]” of 2.7 ×10⁻⁶ cm/s. Besides, the fraction unbound at 4 h, 10 µM in the data set “in vitro [6]” is 0.8; in the data set “in vitro [7]”, 0.94; in “in vitro [8]”, 0.72. For the same compound, the Cmax at 24 h in the data set “in vivo [12]” was 540 nM. At hERG (KCNH2), this compound gave an inhibition at 300 µM of 8.3%. In addition, the bioavailability at 24 h in the data set “in vivo [16]” turned out to be 66%. The clearance at 24 h in the data set “in vivo [17]” amounted to 18.5 mL/min/kg. Also, the AUC(0-inf) at 24 h in “in vivo [13]” was found to be 1.6 µM·h. The efflux ratio in the data set “in vitro [18]” is 1.7. In the data set “physchem [3]”, this compound registered a pKa of 5.

Take `C[C@H]1COc2c(N3CC[C@@H](C4(N)CC4)C3)c(F)cc3cc(C(=O)O)c(=O)n1c23`: the MIC against Streptococcus pneumoniae turned out to be 0.06 µg/mL (≈ 0.155 µM); with Staphylococcus aureus [4], 0.5 µg/mL (≈ 1.29 µM); against Enterococcus faecalis it was 0.25 µg/mL (≈ 0.645 µM); in the data set on Staphylococcus aureus [2], 2 µg/mL (≈ 5.16 µM); in the data set with Staphylococcus aureus [5] it was 0.25 µg/mL (≈ 0.645 µM). Besides, the Tmax at 24 h was 4 h in “in vivo [19]”, 2 h in the data set “in vivo [20]” and 2.7 h in the data set “in vivo [9]”. The compound also showed a solubility at 24 h in “physchem [14]” of 1270 µg/mL (≈ 3270 µM). For the same compound, the EC50 in the data set with K562 and with HepG2 was > 100 µM each time. Also, the logD in “physchem [1]” was -0.9. Moreover, the Vd at 24 h was found to be 1.09 L/kg in the data set “in vivo [10]”, 1.91 L/kg in “in vivo [22]” and 1.88 L/kg in “in vivo [28]”. In addition, the highest concentration (Cmax) at 24 h in “in vivo [21]” was found to be 1350 nM; in the data set “in vivo [12]” it was 1350 nM; in the data set “in vivo [27]”, 490 nM. Moreover, the half-life at 24 h in the data set “in vivo [11]” is 278 min; in “in vivo [24]”, 597 min; in the data set “in vivo [26]” it was 202 min. In addition, in “in vitro [15]”, the Papp A→B at 2 h, 10 µM amounted to 20 ×10⁻⁶ cm/s. Also, the figures for the fraction unbound at 4 h, 10 µM in “in vitro [6]”, in “in vitro [7]” and in the data set “in vitro [8]” were 0.76, 0.87 and 0.63, respectively. Also, the bioavailability at 24 h in the data set “in vivo [23]” stood at 92%; in the data set “in vivo [16]”, 65%. Moreover, the area under the curve AUC(0-inf) at 24 h stood at 19 µM·h in “in vivo [25]”, 8.68 µM·h in “in vivo [13]” and 4.3 µM·h in “in vivo [29]”. On hERG (KCNH2), this compound gave an inhibition at 300 µM of 27%. This compound also showed a clearance at 24 h in the data set “in vivo [17]” of 3.26 mL/min/kg. In addition, the efflux ratio in “in vitro [18]” stood at 0.9. Also, in “physchem [3]”, the pKa came to 4.9.
